pEC50: −log10 of the molar value.
Target: TLR2 (Homo sapiens, UniProt O60603)
Assay: TLR2 agonist screening assay, HEK-Blue TLR2 reporter cell line (NF-kB-driven SEAP, absorbance at 600 nm)
Assay type: cell-based
Parameters: host or cells: HEK-293 (HEK-Blue TLR2 reporter cell line)
Conditions: HEK-Blue TLR2 reporter cells, agonist mode; average of all runs (Table 3)
In short: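 TLR2 engagement is scored through NF-kB-induced secreted alkaline phosphatase in HEK-293 cells, detected by substrate colour change at 600 nm after overnight compound treatment at 1% final DMSO. Potency is expressed as EC50.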

TLR2, sequence (O60603 21-784): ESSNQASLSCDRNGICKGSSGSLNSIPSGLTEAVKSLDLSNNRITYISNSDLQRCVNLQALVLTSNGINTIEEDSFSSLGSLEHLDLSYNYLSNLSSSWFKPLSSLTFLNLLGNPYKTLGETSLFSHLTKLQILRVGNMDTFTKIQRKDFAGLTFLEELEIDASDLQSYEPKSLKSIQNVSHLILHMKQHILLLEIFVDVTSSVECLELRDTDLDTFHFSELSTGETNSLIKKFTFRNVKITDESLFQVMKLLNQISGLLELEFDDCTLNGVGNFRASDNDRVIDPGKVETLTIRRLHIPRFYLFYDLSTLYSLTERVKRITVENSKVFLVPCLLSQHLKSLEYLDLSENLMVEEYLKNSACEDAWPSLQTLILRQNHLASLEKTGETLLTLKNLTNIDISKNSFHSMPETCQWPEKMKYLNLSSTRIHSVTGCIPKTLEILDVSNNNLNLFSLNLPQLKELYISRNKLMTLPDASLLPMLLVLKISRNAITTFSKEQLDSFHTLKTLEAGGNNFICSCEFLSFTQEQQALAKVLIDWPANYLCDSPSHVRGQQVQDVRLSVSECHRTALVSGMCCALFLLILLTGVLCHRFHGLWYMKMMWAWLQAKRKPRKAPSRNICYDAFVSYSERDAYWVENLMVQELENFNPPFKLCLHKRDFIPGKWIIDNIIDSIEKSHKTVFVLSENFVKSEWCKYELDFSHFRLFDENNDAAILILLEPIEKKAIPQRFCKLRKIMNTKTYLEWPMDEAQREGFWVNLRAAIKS

Compound | pEC50
CCCCCCCCCCCCCCNC(=O)[C@@H]1CN(C(=O)c2ccc(C(=O)N3C[C@@H](C(=O)N[C@H]4C[C@@H]4c4ccccc4)[C@H](C(=O)N[C@H]4C[C@@H]4c4ccccc4)C3)cc2)C[C@@H]1OC (single isomer, unassigned) [Compound 061, (3S,4S)-1-(4-((3R*,4R*)-3-methoxy-4-(tetradecylcarbamoyl)pyrrolidine-1-carbonyl)benzoyl)-N3,N4-bis((1S,2R)-2-phenylcyclopropyl)pyrrolidine-3,4-dicarboxamide] | 7.30 to 10.00
O=C(N[C@H]1C[C@@H]1c1ccccc1)[C@@H]1CN(C(=O)c2cnc(C(=O)N3C[C@@H](C(=O)N[C@H]4C[C@@H]4c4ccccc4)[C@H](C(=O)N[C@H]4C[C@@H]4c4ccccc4)C3)cn2)C[C@H]1C(=O)N[C@H]1C[C@@H]1c1ccccc1 [Compound 067] | < 6.00
CCCCCCNC(=O)C[C@H](NC(=O)c1ccc(C(=O)N2C[C@@H](C(=O)N[C@H]3C[C@@H]3c3ccccc3)[C@H](C(=O)N[C@H]3C[C@@H]3c3ccccc3)C2)cc1)C(=O)NCCCCCC [Compound 014] | < 6.00

Same assay, conditions: HEK-Blue TLR2 reporter cells, agonist mode; average of all runs (Table 4)

Compound | pEC50
CCCCCCCO[C@@H]1CN(C(=O)c2ccc(C(=O)N3C[C@@H](C(=O)N[C@H]4C[C@@H]4c4ccccc4)[C@H](C(=O)N[C@H]4C[C@@H]4c4ccccc4)C3)cc2)C[C@@H]1C(=O)NCCCCCC (relative stereo) [Compound 116, (3S,4S)-1-(4-((3S*,4S*)-3-(heptyloxy)-4-(hexylcarbamoyl)pyrrolidine-1-carbonyl)benzoyl)-N3,N4-bis((1S,2R)-2-phenylcyclopropyl)pyrrolidine-3,4-dicarboxamide] | 6.00 to 6.45
CCCCCCCCCCCCCCNC(=O)[C@@H]1CN(C(=O)c2ccc(C(=O)N3C[C@@H](C(=O)N[C@H]4C[C@@H]4c4ccccc4)[C@H](C(=O)N[C@H]4C[C@@H]4c4ccccc4)C3)cc2)CCN1C(=O)CC(C)C [Compound 252, (3S,4S)-1-(4-((S)-4-(3-methylbutanoyl)-3-(tetradecylcarbamoyl)piperazine-1-carbonyl)benzoyl)-N3,N4-bis((1S,2R)-2-phenylcyclopropyl)pyrrolidine-3,4-dicarboxamide] | < 6.00
CCCCCCCCCCCCCCNC(=O)[C@@H]1CN(Cc2ccc(C(=O)N3C[C@@H](C(=O)N[C@H]4C[C@@H]4c4ccccc4)[C@H](C(=O)N[C@H]4C[C@@H]4c4ccccc4)C3)cc2)CCN1C [Compound 088, (3S,4S)-1-(4-(((S)-4-methyl-3-(tetradecylcarbamoyl)piperazin-1-yl)methyl)benzoyl)-N3,N4-bis((1S,2R)-2-phenylcyclopropyl) pyrrolidine-3,4-dicarboxamide] | < 6.00
CCCCCCCCCCCCCCCN1C[C@H](NC(=O)c2ccc(C(=O)N3C[C@@H](C(=O)N[C@H]4C[C@@H]4c4ccccc4)[C@H](C(=O)N[C@H]4C[C@@H]4c4ccccc4)C3)cc2)CCC1=O [Compound 169, (3S,4S)-1-(4-(((R)-6-oxo-1-pentadecylpiperidin-3-yl)carbamoyl)benzoyl)-N3,N4-bis((1S,2R)-2-phenylcyclopropyl)pyrrolidine-3,4-dicarboxamide] | < 6.00
CCCCCCC(=O)N[C@@H](CNC(=O)c1ccc(C(=O)N2C[C@@H](C(=O)N[C@H]3C[C@@H]3c3ccccc3)[C@H](C(=O)N[C@H]3C[C@@H]3c3ccccc3)C2)cc1)C(=O)NCCc1ccc(F)cc1 [Compound 129, (3S,4S)-1-(4-(((S)-3-((4-fluorophenethyl)amino)-2-heptanamido-3-oxopropyl)carbamoyl)benzoyl)-N3,N4-bis((1S,2R)-2-phenylcyclopropyl)pyrrolidine-3,4-dicarboxamide] | 6.46 to 7.29
CCCCCCCCCCCCCCC(=O)N[C@H]1CCCN(C(=O)c2ccc(C(=O)N3C[C@@H](C(=O)N[C@H]4C[C@@H]4c4ccccc4)[C@H](C(=O)N[C@H]4C[C@@H]4c4ccccc4)C3)cc2)C1 [Compound 124, (3S,4S)-1-(4-((S)-3-pentadecanamidopiperidine-1-carbonyl)benzoyl)-N3,N4-bis((1S,2R)-2-phenylcyclopropyl)pyrrolidine-3,4-dicarboxamide] | < 6.00
O=C(N[C@H]1C[C@@H]1c1ccccc1)[C@@H]1CN(C(=O)c2ccc(C(=O)N3C[C@@H](C(=O)N[C@H]4C[C@@H]4c4ccccc4)[C@H](C(=O)N[C@@H]4C[C@H]4c4cccnc4)C3)cc2)C[C@H]1C(=O)N[C@H]1C[C@@H]1c1ccccc1 (single isomer, unassigned) [Compound 097, (3S,4S)—N3-((1S)-2-phenylcyclopropyl)-N4-(2-phenylcyclopropyl)-1-(4-((3S,4S)-3-(((1S,2R)-2-phenylcyclopropyl)carbamoyl)-4-(((1S*,2R*)-2-(pyridin-3-yl)cyclopropyl)carbamoyl)pyrrolidine-1-carbonyl)benzoyl)pyrrolidine-3,4-dicarboxamide] | 6.46 to 7.29
CCCCCCCC(=O)N1CCCN(S(=O)(=O)c2cccc(C(=O)N3C[C@@H](C(=O)N[C@H]4C[C@@H]4c4ccccc4)[C@H](C(=O)N[C@H]4C[C@@H]4c4ccccc4)C3)c2)C[C@@H]1C(=O)NCCCCCC (single isomer, unassigned) [Compound 201] | 6.00 to 6.45
CCCCCCCCCCCCCNC(=O)N[C@H]1CN(c2nc3ccc(C(=O)N4C[C@@H](C(=O)N[C@H]5C[C@@H]5c5ccccc5)[C@H](C(=O)N[C@H]5C[C@@H]5c5ccccc5)C4)cc3o2)C[C@@H]1OC [Compound 247, (3S,4S)-1-(2-((3S,4S)-3-methoxy-4-(3-tridecylureido)pyrrolidin-1-yl)benzo[d]oxazole-6-carbonyl)-N3,N4-bis((1S,2R)-2-phenylcyclopropyl)pyrrolidine-3,4-dicarboxamide] | < 6.00
CCCCCCCCCC(=O)N[C@@H](Cc1nnc(-c2ccc(C(=O)N3C[C@@H](C(=O)N[C@H]4C[C@@H]4c4ccccc4)[C@H](C(=O)N[C@H]4C[C@@H]4c4ccccc4)C3)cc2)o1)C(=O)NCCCCCC [Compound 259, (3S,4S)-1-(4-(5-((S)-2-decanamido-3-(hexylamino)-3-oxopropyl)-1,3,4-oxadiazol-2-yl)benzoyl)-N3,N4-bis((1S,2R)-2-phenylcyclopropyl)pyrrolidine-3,4-dicarboxamide] | 6.00 to 6.45
CCCNC(=O)[C@@H]1CN(C(=O)c2ccc(C(=O)N3C[C@@H](C(=O)N[C@H]4C[C@@H]4c4ccccc4)[C@H](C(=O)N[C@H]4C[C@@H]4c4ccccc4)C3)cc2)CCN1C(C)=O [Compound 265, (3S,4S)-1-(4-((S)-4-acetyl-3-(propylcarbamoyl)piperazine-1-carbonyl)benzoyl)-N3,N4-bis((1S,2R)-2-phenylcyclopropyl) pyrrolidine-3,4-dicarboxamide] | < 6.00
CCCCCCCCCCCCCCCN[C@@H]1CCN(C(=O)c2ccc(C(=O)N3C[C@@H](C(=O)N[C@H]4C[C@@H]4c4ccccc4)[C@H](C(=O)N[C@H]4C[C@@H]4c4ccccc4)C3)cc2)C1 [Compound 082, (3S,4S)-1-(4-((R)-3-(pentadecylamino)pyrrolidine-1-carbonyl)benzoyl)-N3,N4-bis((1S,2R)-2-phenylcyclopropyl)pyrrolidine-3,4-dicarboxamide] | < 6.00
CCCCCCC(=O)N[C@@H](CNC(=O)c1ccc(C(=O)N2C[C@@H](C(=O)N[C@H]3C[C@@H]3c3ccccc3)[C@H](C(=O)N[C@H]3C[C@@H]3c3ccccc3)C2)cc1)C(=O)NCCCC [Compound 131, (3S,4S)-1-(4-(((S)-3-(butylamino)-2-heptanamido-3-oxopropyl)carbamoyl)benzoyl)-N3,N4-bis((1S,2R)-2-phenylcyclopropyl)pyrrolidine-3,4-dicarboxamide] | 6.00 to 6.45

From patent US11951094B2, “TLR2 modulator compounds, pharmaceutical compositions and uses thereof” (Axial Therapeutics, Inc., priority 2020, dated 2024)
